Measurements as given in ChEMBL document CHEMBL1201862, “PubChem BioAssay data set” (2004).
Active and inactive are the calls of the source.

Columns and labels:
[1] = system: INS1; assay: INS-1E survival protection against cytokine death – cell-based, luminescence, retest, dose response (AID 449756); format: functional; details: Rattus norvegicus;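 also: cell death triggered by IL-1 beta plus TNF-alpha plus IFN-gamma mixture; protective hits raise ATP signal compared with cytokine alone wells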
[2] = biological target: T1, Rac GTPase-activating protein 1 (Homo sapiens, UniProt Q9H0H5); assay: blockers of MgcRacGAP-driven Rac1 GTP hydrolysis – biochemical, ADP Hunter fluorescence, primary and confirmatory, confirmation (AID 624330); format: functional
T1 sequence (Q9H0H5 whole entry): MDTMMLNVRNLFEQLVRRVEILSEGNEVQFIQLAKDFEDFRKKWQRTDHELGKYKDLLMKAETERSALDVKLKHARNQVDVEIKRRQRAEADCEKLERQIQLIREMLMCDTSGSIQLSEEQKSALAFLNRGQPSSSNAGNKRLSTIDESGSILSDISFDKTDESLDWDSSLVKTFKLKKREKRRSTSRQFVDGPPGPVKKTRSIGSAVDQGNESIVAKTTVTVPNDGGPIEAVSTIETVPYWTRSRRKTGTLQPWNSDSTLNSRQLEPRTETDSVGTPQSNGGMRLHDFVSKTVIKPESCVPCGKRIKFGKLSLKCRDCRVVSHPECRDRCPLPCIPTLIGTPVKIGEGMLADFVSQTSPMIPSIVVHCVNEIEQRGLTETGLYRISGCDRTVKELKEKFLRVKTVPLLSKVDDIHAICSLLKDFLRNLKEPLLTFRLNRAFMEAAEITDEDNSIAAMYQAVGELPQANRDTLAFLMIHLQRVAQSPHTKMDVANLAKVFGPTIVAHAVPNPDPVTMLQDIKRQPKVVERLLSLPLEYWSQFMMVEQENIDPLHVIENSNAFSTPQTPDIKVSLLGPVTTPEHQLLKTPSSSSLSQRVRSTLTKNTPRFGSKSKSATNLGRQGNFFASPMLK

[3] = biological target: T2, Heat shock factor protein 1 (Mus musculus, UniProt P38532); assay: decrease of HSF1-responsive luciferase luminescence – cell-based, NIH3T3, dose retest, confirmation (AID 2382); format: functional;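 also: NIH3T3 fibroblasts with HSF1-driven luciferase reporter stressed by proteasome inhibitor MG132; luminescence from HSF1-driven luciferase expression after 8 hours of MG132 stress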
T2 sequence (P38532 whole entry): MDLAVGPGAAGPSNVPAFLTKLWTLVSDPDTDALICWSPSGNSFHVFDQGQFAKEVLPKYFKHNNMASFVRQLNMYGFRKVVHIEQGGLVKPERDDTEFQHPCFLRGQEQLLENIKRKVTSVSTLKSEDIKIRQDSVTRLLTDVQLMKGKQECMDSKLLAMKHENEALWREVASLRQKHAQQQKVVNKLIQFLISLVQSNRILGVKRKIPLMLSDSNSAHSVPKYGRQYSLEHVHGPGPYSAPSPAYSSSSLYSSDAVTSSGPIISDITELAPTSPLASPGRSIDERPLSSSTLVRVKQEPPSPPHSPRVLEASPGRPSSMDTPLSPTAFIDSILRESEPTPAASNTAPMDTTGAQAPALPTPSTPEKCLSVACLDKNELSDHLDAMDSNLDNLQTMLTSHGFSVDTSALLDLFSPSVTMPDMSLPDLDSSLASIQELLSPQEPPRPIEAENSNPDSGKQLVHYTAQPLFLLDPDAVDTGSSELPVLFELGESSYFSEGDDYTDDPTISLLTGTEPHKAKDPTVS

[4] = biological target: T3, Corticotropin-releasing factor receptor 2/Corticotropin-releasing factor-binding protein (Homo sapiens, UniProt P24387+Q13324); assay: Dose Response confirmation of uHTS hits for small molecule antagonists of the CRF-binding protein and CRF-R2 receptor complex.; format: functional; details: read-out: IC50_Mean
T3 sequence (Q13324 whole entry): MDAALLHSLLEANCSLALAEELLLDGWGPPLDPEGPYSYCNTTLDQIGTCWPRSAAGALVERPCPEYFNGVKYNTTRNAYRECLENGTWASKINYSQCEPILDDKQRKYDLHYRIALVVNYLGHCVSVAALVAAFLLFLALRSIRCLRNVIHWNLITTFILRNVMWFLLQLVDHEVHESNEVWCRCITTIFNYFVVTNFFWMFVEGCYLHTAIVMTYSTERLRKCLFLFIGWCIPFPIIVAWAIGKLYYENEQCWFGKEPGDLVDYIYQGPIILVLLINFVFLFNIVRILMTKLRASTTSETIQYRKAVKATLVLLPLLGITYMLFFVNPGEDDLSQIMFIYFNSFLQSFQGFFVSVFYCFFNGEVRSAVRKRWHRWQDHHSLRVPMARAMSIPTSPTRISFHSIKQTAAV
T3 sequence (P24387 whole entry): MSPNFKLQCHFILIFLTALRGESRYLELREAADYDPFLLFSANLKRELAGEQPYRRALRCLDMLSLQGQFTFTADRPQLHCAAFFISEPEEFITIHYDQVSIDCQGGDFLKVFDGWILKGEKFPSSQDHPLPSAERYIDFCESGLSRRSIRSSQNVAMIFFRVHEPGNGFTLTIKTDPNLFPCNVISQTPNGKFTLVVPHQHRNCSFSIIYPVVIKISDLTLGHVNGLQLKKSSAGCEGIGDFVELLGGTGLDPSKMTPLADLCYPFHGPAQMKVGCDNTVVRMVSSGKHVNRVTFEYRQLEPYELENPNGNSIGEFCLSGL

[5] = biological target: T3, Corticotropin-releasing factor receptor 2/Corticotropin-releasing factor-binding protein; assay: activators of CRF receptor 2 with binding protein – uHTS hits, confirmation (AID 602473); format: functional; details: read-out: EC50_Mean
[6] = NIH3T3 cell viability loss – ATP luminescence, mouse fibroblasts, counter-screen, dose response (AID 2010); format: functional, cell-based;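 also: cells exposed to compound for about 90 hours before reading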
[7] = Trypanosoma cruzi growth suppression in host cells – NIH3T3 host cells, beta-gal luminescence, confirmation (AID 2044); format: functional, cell-based;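 also: intracellular parasites grown in NIH/3T3 mouse fibroblasts as host cells; luminescent beta-galactosidase reporter signal from transgenic T. cruzi replicating inside host cells; inhibitors lower the luminescence signal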
[8] = biological target: Cytochrome P450 2C9 (Homo sapiens, UniProt P11712)
Chain of Cytochrome P450 2C9 (P11712 whole entry): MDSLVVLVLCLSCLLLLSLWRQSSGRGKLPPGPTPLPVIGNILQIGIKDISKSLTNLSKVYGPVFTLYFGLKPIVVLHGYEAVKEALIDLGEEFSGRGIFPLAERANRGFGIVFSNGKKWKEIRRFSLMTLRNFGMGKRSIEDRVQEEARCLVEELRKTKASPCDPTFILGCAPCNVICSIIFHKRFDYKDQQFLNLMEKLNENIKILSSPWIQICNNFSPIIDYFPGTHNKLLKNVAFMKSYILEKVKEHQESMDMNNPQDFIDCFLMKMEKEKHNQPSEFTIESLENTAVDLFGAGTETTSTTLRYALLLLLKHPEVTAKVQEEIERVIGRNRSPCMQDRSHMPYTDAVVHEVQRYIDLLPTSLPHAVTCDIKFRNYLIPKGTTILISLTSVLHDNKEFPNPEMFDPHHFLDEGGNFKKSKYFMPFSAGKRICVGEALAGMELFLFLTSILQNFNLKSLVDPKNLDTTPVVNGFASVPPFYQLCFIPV

[9] = biological target: T4, Cytochrome P450 1A2 (Homo sapiens, UniProt P05177);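 also: PubChem cytochrome P450 panel assay, CYP1A2 panel member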
T4 sequence (P05177 whole entry): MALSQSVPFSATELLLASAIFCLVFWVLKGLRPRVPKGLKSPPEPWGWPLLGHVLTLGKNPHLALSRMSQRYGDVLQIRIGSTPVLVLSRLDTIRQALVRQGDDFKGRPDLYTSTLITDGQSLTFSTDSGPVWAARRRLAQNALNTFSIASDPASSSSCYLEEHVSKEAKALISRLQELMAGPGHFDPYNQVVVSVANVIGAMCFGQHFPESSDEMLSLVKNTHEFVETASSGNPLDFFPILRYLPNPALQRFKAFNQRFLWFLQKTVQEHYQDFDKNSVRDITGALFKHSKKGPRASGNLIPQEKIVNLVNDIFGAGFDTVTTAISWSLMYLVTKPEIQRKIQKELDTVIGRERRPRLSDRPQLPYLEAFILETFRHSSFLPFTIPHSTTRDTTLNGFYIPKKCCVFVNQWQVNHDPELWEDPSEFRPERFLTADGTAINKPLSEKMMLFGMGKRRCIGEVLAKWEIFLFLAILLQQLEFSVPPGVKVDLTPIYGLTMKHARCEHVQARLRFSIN

[10] = biological target: Cytochrome P450 2C19 (Homo sapiens, UniProt P33261); assay: Cytochrome panel assay with activity outcomes. Panel member name: p450-cyp2c19 Compounds with AC50 equal or less than 10 uM are considered active; format: functional; details: read-out: AC50
Chain of Cytochrome P450 2C19 (P33261 whole entry): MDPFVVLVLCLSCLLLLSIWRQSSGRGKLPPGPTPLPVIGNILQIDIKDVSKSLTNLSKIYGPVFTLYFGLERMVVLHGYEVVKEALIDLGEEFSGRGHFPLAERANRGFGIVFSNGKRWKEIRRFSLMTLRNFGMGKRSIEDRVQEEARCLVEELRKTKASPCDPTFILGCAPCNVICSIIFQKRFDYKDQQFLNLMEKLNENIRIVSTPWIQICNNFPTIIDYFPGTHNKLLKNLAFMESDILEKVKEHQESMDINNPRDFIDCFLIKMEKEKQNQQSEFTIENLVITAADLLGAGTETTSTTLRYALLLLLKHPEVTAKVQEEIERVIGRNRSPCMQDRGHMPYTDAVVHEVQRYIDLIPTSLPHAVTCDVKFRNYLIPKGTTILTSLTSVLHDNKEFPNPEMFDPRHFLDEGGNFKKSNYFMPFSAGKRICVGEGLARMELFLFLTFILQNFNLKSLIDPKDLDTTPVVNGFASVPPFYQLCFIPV

Cc1ccc2c(c1)N(C)/C(=C/c1cccc[n+]1CCO)S2
AC50 [1]: 4.37 µM (active)

O=C(c1cccc(Cl)c1)N1CCN(Cc2ccncc2)CC1
IC50 [2]: 99.7 µM (active)

CN(C)c1ccc(/C=N/NC(=O)c2cccc(N3CCCC3=O)c2)cc1
EC50 [3]: > 195 µM (not active)

CCOC(=O)NC(O)C(=O)c1cccs1 (stereo unspecified)
IC50 [4]: > 47.1 µM (inactive) | EC50 [5]: > 53 µM (inactive)

COc1ccc(C(=O)N/N=C/c2ccccc2OC(=O)c2ccccc2)cc1
AC50 [1]: 2.35 µM (active)

CC(C)C[C@H](NC(=O)N1CCCCCC1)C(=O)O
EC50 [3]: > 195 µM (not active)

COc1ccc(-n2cccc2/C=C2/NC(=O)N(c3cccc(Cl)c3)C2=O)cc1
EC50 [3]: 30.2 µM (active)

COc1cccc(C2CC(c3ccccc3)n3ncnc3N2)c1 (stereo unspecified)
EC50 [3]: > 195 µM (not active)

NS(=O)(=O)c1ccc(NC(S)=Nc2ccc(F)c(F)c2)cc1
IC50 [4]: > 47.1 µM (inactive) | EC50 [5]: > 53 µM (inactive)

CC1CCCN(C(=O)CSc2nnc(-c3ccc(O)cc3)o2)C1 (stereo unspecified)
EC50 [3]: > 195 µM (not active)

CC(=O)Nc1cc[n+](C(C)C(=O)c2ccccc2)cc1 (stereo unspecified)
EC50 [3]: > 195 µM (not active)

COc1ccc(S(=O)(=O)N2CCCCCC2)cc1C(=O)NCCc1ccccc1
IC50 [4]: > 47.1 µM (inactive) | EC50 [5]: > 53 µM (inactive)

Cc1nn(C)c(Oc2ccc(Cl)cc2)c1C(=O)O
IC50 [4]: > 47.1 µM (inactive) | EC50 [5]: > 53 µM (inactive)

COCCNCC(=O)Nc1ccc(C)c(S(=O)(=O)N2CCCCC2)c1
IC50 [2]: 132 µM (active)

Cc1ccc(N(CC(=O)Nc2cc(C)cc(C)c2)S(=O)(=O)c2c(C)noc2C)cc1
AC50 [1]: 8.43 µM (active)

Cc1ccc(S(=O)(=O)N(CC(=O)NCc2ccco2)Cc2ccccc2F)cc1
IC50 [4]: > 47.1 µM (inactive) | EC50 [5]: > 53 µM (inactive)

COc1ccc(-[n+]2cc(-c3ccccc3)n3c2CCCCC3)cc1
AC50 [1]: 1.66 µM (active) | EC50 [6]: > 30 µM (not active) | EC50 [7]: 0.453 µM (active)

COc1c(Cl)cc(Cl)cc1CNc1ccc(S(N)(=O)=O)cc1
IC50 [4]: > 47.1 µM (inactive) | EC50 [5]: > 53 µM (inactive)

COc1cccc(Cn2c(=O)c(-c3cn(C)c4ccccc34)nc3cnc(OC)nc32)c1
AC50 [8]: 12.6 µM (inconclusive) | AC50 [9]: 15.8 µM (inconclusive)

Cc1ccc(NC(S)=NCc2ccccn2)cc1
IC50 [4]: > 47.1 µM (inactive) | EC50 [5]: > 53 µM (inactive)

FC(F)(F)c1ccccc1N=C(S)N1CCN(Cc2ccc3c(c2)OCO3)CC1
AC50 [1]: 7.02 µM (active)

CCc1nnc(NC(=O)CSc2nc(C3CCCCC3)nc3ccccc23)s1
AC50 [10]: 5.01 µM (inconclusive) | AC50 [8]: 3.55 µM (inconclusive)

COc1ccc(C(=O)COC(=O)CCN2C(=O)C3C4CC(C(Br)C4Br)C3C2=O)cc1 (stereo unspecified)
EC50 [3]: > 195 µM (not active)

O=C(O)CCCn1c(=S)[nH]c2c(sc3ccc([N+](=O)[O-])cc32)c1=O
IC50 [2]: 40.3 µM (active)

Cc1[nH]n(CCC#N)c(=O)c1CC(=O)N1CCN(c2ccccc2)CC1
IC50 [4]: > 47.1 µM (inactive) | EC50 [3]: > 195 µM (not active) | EC50 [5]: > 53 µM (inactive)

CC1(C)CC(=O)C(/C=N/c2ccc(N)cc2)=C(O)C1
IC50 [2]: 46.9 µM (active)

CC(C)n1cc(CN2CCCC(CNS(=O)(=O)c3cccc4cccnc34)C2)cn1 (stereo unspecified)
EC50 [3]: > 195 µM (not active) | EC50 [6]: > 60 µM (not active) | EC50 [7]: 0.798 µM (active)

N=C(N)Nc1nc(CCN2C(=O)c3ccccc3C2=O)cs1
AC50 [8]: 17.8 µM (inconclusive) | AC50 [9]: 12.6 µM (inconclusive)

O=C(Nc1ccc(N2CCN(Cc3ccccc3Cl)CC2)cc1)c1cccnc1
AC50 [1]: 4.75 µM (active)

COC(=O)c1nc(Cl)c(Cl)c(N)c1Cl
EC50 [3]: > 195 µM (not active)

CCc1ccc2nc3sc(C(=O)O)cc3cc2c1
IC50 [2]: 122 µM (active)

c1cc(CNc2ccc3c(c2)OCCO3)ccn1
IC50 [2]: 108 µM (active) | EC50 [3]: 6.77 µM (active)

Cc1ccc(S(=O)(=O)NC(C)(C)CSc2nncn2N)cc1
EC50 [3]: > 195 µM (not active)

O=C(Nc1cccc(Cl)c1)N1CCOCC1
EC50 [3]: > 195 µM (not active)

O=C(C1CCN(C2CCN(CC3CC=CCC3)CC2)CC1)N1CCOCC1 (stereo unspecified)
IC50 [4]: > 47.1 µM (inactive) | EC50 [5]: > 53 µM (inactive)

COc1cc(/C=N/n2c(C)nc3ccccc3c2=O)ccc1O
IC50 [2]: 48.5 µM (active)

CCOC(=O)c1nc(S)n(Cc2ccccc2)c1C(=O)OCC
IC50 [2]: 49.6 µM (active)

CN(C)CCO/N=C(\c1ccc(Br)cc1)c1cccnc1
IC50 [2]: 141 µM (active)

O=C(O)CC1SC(Nc2ccc(O)cc2)=NC1=O (stereo unspecified)
IC50 [2]: 118 µM (active)

CC(O)CNCCCOc1ccc(Cl)cc1C(C)(C)C (stereo unspecified)
EC50 [3]: 142 µM (active)

COc1ccc(NC2CCCN(C(=O)c3ccccc3-c3ncc[nH]3)C2)cc1 (stereo unspecified)
IC50 [2]: 146 µM (active)

CC(C)(C)c1ccc(SCCc2cccnc2)cc1
IC50 [4]: > 47.1 µM (inactive) | EC50 [5]: > 53 µM (inactive)
